According to ChEMBL document CHEMBL4251634, “Synthesis and antimicrobial activity of pyrimidinyl 1,3,4-oxadiazoles, 1,3,4-thiadiazoles and 1,2,4-triazoles” (2018):

Experiments:
Assay type in all cases: functional
Aspergillus niger [1] = test: Antifungal activity against Aspergillus niger assessed as diameter of inhibition zone at 12.5 ug/well after 48 hrs by agar well diffusion method; settings: read-out: DIZ
Pseudomonas aeruginosa [2] = test: Antibacterial activity against Pseudomonas aeruginosa assessed as diameter of inhibition zone at 25 ug/well after 24 hrs by agar well diffusion method; settings: read-out: DIZ
Aspergillus niger [3] = test: Antifungal activity against Aspergillus niger assessed as diameter of inhibition zone at 25 ug/well after 48 hrs by agar well diffusion method; settings: read-out: DIZ
Staphylococcus aureus [4] = test: Antibacterial activity against Staphylococcus aureus assessed as diameter of inhibition zone at 25 ug/well after 24 hrs by agar well diffusion method; settings: read-out: DIZ
Klebsiella pneumoniae [5] = test: Antibacterial activity against Klebsiella pneumoniae assessed as diameter of inhibition zone at 25 ug/well after 24 hrs by agar well diffusion method; settings: read-out: DIZ
Bacillus subtilis [6] = test: Antibacterial activity against Bacillus subtilis assessed as diameter of inhibition zone at 25 ug/well after 24 hrs by agar well diffusion method; settings: read-out: DIZ
Staphylococcus aureus [7] = test: Antibacterial activity against Staphylococcus aureus after 24 hrs by turbidity-based broth dilution assay
Staphylococcus aureus [8] = test: Bactericidal activity against Staphylococcus aureus incubated for 24 hrs followed by regrowth on sterile nutrient broth for 24 hrs
Klebsiella pneumoniae [9] = test: Antibacterial activity against Klebsiella pneumoniae after 24 hrs by turbidity-based broth dilution assay
Bacillus subtilis [10] = test: Antibacterial activity against Bacillus subtilis assessed as diameter of inhibition zone at 50 ug/well after 24 hrs by agar well diffusion method; settings: read-out: DIZ
Penicillium chrysogenum [11] = test: Antifungal activity against Penicillium chrysogenum assessed as diameter of inhibition zone at 100 ug/well after 48 hrs by agar well diffusion method; settings: read-out: DIZ
Pseudomonas aeruginosa [12] = test: Antibacterial activity against Pseudomonas aeruginosa assessed as diameter of inhibition zone at 100 ug/well after 24 hrs by agar well diffusion method; settings: read-out: DIZ
Penicillium chrysogenum [13] = test: Fungicidal activity against Penicillium chrysogenum incubated for 48 hrs followed by regrowth on PDA plates for 48 hrs
Penicillium chrysogenum [14] = test: Antifungal activity against Penicillium chrysogenum assessed as diameter of inhibition zone at 12.5 ug/well after 48 hrs by agar well diffusion method; settings: read-out: DIZ
Penicillium chrysogenum [15] = test: Antifungal activity against Penicillium chrysogenum after 48 hrs by turbidity-based broth dilution assay
Klebsiella pneumoniae [16] = test: Antibacterial activity against Klebsiella pneumoniae assessed as diameter of inhibition zone at 12.5 ug/well after 24 hrs by agar well diffusion method; settings: read-out: DIZ
Bacillus subtilis [17] = test: Antibacterial activity against Bacillus subtilis assessed as diameter of inhibition zone at 100 ug/well after 24 hrs by agar well diffusion method; settings: read-out: DIZ
Penicillium chrysogenum [18] = test: Antifungal activity against Penicillium chrysogenum assessed as diameter of inhibition zone at 50 ug/well after 48 hrs by agar well diffusion method; settings: read-out: DIZ
Staphylococcus aureus [19] = test: Antibacterial activity against Staphylococcus aureus assessed as diameter of inhibition zone at 12.5 ug/well after 24 hrs by agar well diffusion method; settings: read-out: DIZ
Aspergillus niger [20] = test: Fungicidal activity against Aspergillus niger incubated for 48 hrs followed by regrowth on PDA plates for 48 hrs
Bacillus subtilis [21] = test: Bactericidal activity against Bacillus subtilis incubated for 24 hrs followed by regrowth on sterile nutrient broth for 24 hrs; parameters: unit not given here
Pseudomonas aeruginosa [22] = test: Ratio of MBC to MIC for Pseudomonas aeruginosa
Aspergillus niger [23] = test: Antifungal activity against Aspergillus niger assessed as diameter of inhibition zone at 100 ug/well after 48 hrs by agar well diffusion method; settings: read-out: DIZ
Bacillus subtilis [24] = test: Antibacterial activity against Bacillus subtilis assessed as diameter of inhibition zone at 12.5 ug/well after 24 hrs by agar well diffusion method; settings: read-out: DIZ
Klebsiella pneumoniae [25] = test: Antibacterial activity against Klebsiella pneumoniae assessed as diameter of inhibition zone at 50 ug/well after 24 hrs by agar well diffusion method; settings: read-out: DIZ
Pseudomonas aeruginosa [26] = test: Antibacterial activity against Pseudomonas aeruginosa assessed as diameter of inhibition zone at 50 ug/well after 24 hrs by agar well diffusion method; settings: read-out: DIZ
Pseudomonas aeruginosa [27] = test: Antibacterial activity against Pseudomonas aeruginosa after 24 hrs by turbidity-based broth dilution assay
Penicillium chrysogenum [28] = test: Antifungal activity against Penicillium chrysogenum assessed as diameter of inhibition zone at 25 ug/well after 48 hrs by agar well diffusion method; settings: read-out: DIZ
Pseudomonas aeruginosa [29] = test: Bactericidal activity against Pseudomonas aeruginosa incubated for 24 hrs followed by regrowth on sterile nutrient broth for 24 hrs
Aspergillus niger [30] = test: Antifungal activity against Aspergillus niger assessed as diameter of inhibition zone at 50 ug/well after 48 hrs by agar well diffusion method; settings: read-out: DIZ
Staphylococcus aureus [31] = test: Antibacterial activity against Staphylococcus aureus assessed as diameter of inhibition zone at 100 ug/well after 24 hrs by agar well diffusion method; settings: read-out: DIZ
Aspergillus niger [32] = test: Antifungal activity against Aspergillus niger after 48 hrs by turbidity-based broth dilution assay
Klebsiella pneumoniae [33] = test: Bactericidal activity against Klebsiella pneumoniae incubated for 24 hrs followed by regrowth on sterile nutrient broth for 24 hrs
Pseudomonas aeruginosa [34] = test: Antibacterial activity against Pseudomonas aeruginosa assessed as diameter of inhibition zone at 12.5 ug/well after 24 hrs by agar well diffusion method; settings: read-out: DIZ
Klebsiella pneumoniae [35] = test: Antibacterial activity against Klebsiella pneumoniae assessed as diameter of inhibition zone at 100 ug/well after 24 hrs by agar well diffusion method; settings: read-out: DIZ
Staphylococcus aureus [36] = test: Antibacterial activity against Staphylococcus aureus assessed as diameter of inhibition zone at 50 ug/well after 24 hrs by agar well diffusion method; settings: read-out: DIZ
Aspergillus niger [37] = test: Ratio of MFC to MIC for Aspergillus niger

MIC (Staphylococcus aureus [7]) [µg] | MIC (Klebsiella pneumoniae [9]) [µg] | MIC (Penicillium chrysogenum [15]) [µg] | SMILES | zone of inhibition at 12.5 µg/disc (Aspergillus niger [1]) [mm] | zone of inhibition at 25 µg/disc (Pseudomonas aeruginosa [2]) [mm] | zone of inhibition at 25 µg/disc (Aspergillus niger [3]) [mm] | zone of inhibition at 25 µg/disc (Staphylococcus aureus [4]) [mm] | zone of inhibition at 25 µg/disc (Klebsiella pneumoniae [5]) [mm] | zone of inhibition at 25 µg/disc (Bacillus subtilis [6]) [mm] | MBC (Staphylococcus aureus [8]) [µg] | zone of inhibition at 50 µg/disc (Bacillus subtilis [10]) [mm] | zone of inhibition at 100 µg/disc (Penicillium chrysogenum [11]) [mm] | zone of inhibition at 100 µg/disc (Pseudomonas aeruginosa [12]) [mm] | MFC (Penicillium chrysogenum [13]) [µg] | zone of inhibition at 12.5 µg/disc (Penicillium chrysogenum [14]) [mm] | zone of inhibition at 12.5 µg/disc (Klebsiella pneumoniae [16]) [mm] | zone of inhibition at 100 µg/disc (Bacillus subtilis [17]) [mm] | zone of inhibition at 50 µg/disc (Penicillium chrysogenum [18]) [mm] | zone of inhibition at 12.5 µg/disc (Staphylococcus aureus [19]) [mm] | MFC (Aspergillus niger [20]) [µg] | further results
50 | 12.5 | 50 | Cc1cc(SCc2nnc(-c3ccc([N+](=O)[O-])cc3)s2)nc(SCc2nnc(-c3ccc([N+](=O)[O-])cc3)s2)n1 | 27 | 31 | 29 | 18 | 33 | 24 | 200 | 27 | 26 | 35 | 200 | 20 | 31 | 31 | 24 | 16 | 50 | MBC (Bacillus subtilis [21]): 100; Ratio (Pseudomonas aeruginosa [22]): 2; zone of inhibition at 100 µg/disc (Aspergillus niger [23]): 35 mm; zone of inhibition at 12.5 µg/disc (Bacillus subtilis [24]): 22 mm; zone of inhibition at 50 µg/disc (Klebsiella pneumoniae [25]): 35 mm; zone of inhibition at 50 µg/disc (Pseudomonas aeruginosa [26]): 33 mm; MIC (Pseudomonas aeruginosa [27]): 6.25 µg; zone of inhibition at 25 µg/disc (Penicillium chrysogenum [28]): 22 mm; MBC (Pseudomonas aeruginosa [29]): 12.5 µg; zone of inhibition at 50 µg/disc (Aspergillus niger [30]): 32 mm; zone of inhibition at 100 µg/disc (Staphylococcus aureus [31]): 23 mm; MIC (Aspergillus niger [32]): 12.5 µg; MBC (Klebsiella pneumoniae [33]): 50 µg; zone of inhibition at 12.5 µg/disc (Pseudomonas aeruginosa [34]): 28 mm; zone of inhibition at 100 µg/disc (Klebsiella pneumoniae [35]): 38 mm; zone of inhibition at 50 µg/disc (Staphylococcus aureus [36]): 20 mm
50 | 12.5 | 50 | Cc1cc(SCc2nnc(-c3ccc(Cl)cc3)s2)nc(SCc2nnc(-c3ccc(Cl)cc3)s2)n1 | 24 | 29 | 26 | 17 | 30 | 23 | 200 | 26 | 22 | 34 | 200 | 15 | 28 | 29 | 19 | 15 | 50 | MBC (Bacillus subtilis [21]): 100; Ratio (Pseudomonas aeruginosa [22]): 2; zone of inhibition at 100 µg/disc (Aspergillus niger [23]): 31 mm; zone of inhibition at 12.5 µg/disc (Bacillus subtilis [24]): 21 mm; zone of inhibition at 50 µg/disc (Klebsiella pneumoniae [25]): 32 mm; zone of inhibition at 50 µg/disc (Pseudomonas aeruginosa [26]): 32 mm; MIC (Pseudomonas aeruginosa [27]): 6.25 µg; zone of inhibition at 25 µg/disc (Penicillium chrysogenum [28]): 17 mm; MBC (Pseudomonas aeruginosa [29]): 12.5 µg; zone of inhibition at 50 µg/disc (Aspergillus niger [30]): 28 mm; zone of inhibition at 100 µg/disc (Staphylococcus aureus [31]): 21 mm; MIC (Aspergillus niger [32]): 12.5 µg; MBC (Klebsiella pneumoniae [33]): 50 µg; zone of inhibition at 12.5 µg/disc (Pseudomonas aeruginosa [34]): 26 mm; zone of inhibition at 100 µg/disc (Klebsiella pneumoniae [35]): 35 mm; zone of inhibition at 50 µg/disc (Staphylococcus aureus [36]): 19 mm
100 | 25 | 25 | Cc1cc(SCc2nnc(-c3ccc([N+](=O)[O-])cc3)n2N)nc(SCc2nnc(-c3ccc([N+](=O)[O-])cc3)n2N)n1 | 33 | 26 | 35 | 15 | 27 | 20 | >200 | 22 | 31 | 31 | 100 | 23 | 25 | 26 | 27 | 13 | 12.5 | MBC (Bacillus subtilis [21]): 200; zone of inhibition at 100 µg/disc (Aspergillus niger [23]): 40 mm; Ratio (Aspergillus niger [37]): 2; zone of inhibition at 12.5 µg/disc (Bacillus subtilis [24]): 18 mm; zone of inhibition at 50 µg/disc (Klebsiella pneumoniae [25]): 29 mm; zone of inhibition at 50 µg/disc (Pseudomonas aeruginosa [26]): 28 mm; MIC (Pseudomonas aeruginosa [27]): 12.5 µg; zone of inhibition at 25 µg/disc (Penicillium chrysogenum [28]): 25 mm; MBC (Pseudomonas aeruginosa [29]): 50 µg; zone of inhibition at 50 µg/disc (Aspergillus niger [30]): 37 mm; zone of inhibition at 100 µg/disc (Staphylococcus aureus [31]): 19 mm; MIC (Aspergillus niger [32]): 6.25 µg; MBC (Klebsiella pneumoniae [33]): 100 µg; zone of inhibition at 12.5 µg/disc (Pseudomonas aeruginosa [34]): 23 mm; zone of inhibition at 100 µg/disc (Klebsiella pneumoniae [35]): 32 mm; zone of inhibition at 50 µg/disc (Staphylococcus aureus [36]): 17 mm
100 | 25 | 25 | Cc1cc(SCc2nnc(-c3ccc(Cl)cc3)n2N)nc(SCc2nnc(-c3ccc(Cl)cc3)n2N)n1 | 32 | 21 | 33 | 11 | 24 | 18 | >200 | 20 | 29 | 27 | 100 | 21 | 22 | 24 | 25 | 10 | 12.5 | MBC (Bacillus subtilis [21]): 200; zone of inhibition at 100 µg/disc (Aspergillus niger [23]): 38 mm; Ratio (Aspergillus niger [37]): 2; zone of inhibition at 12.5 µg/disc (Bacillus subtilis [24]): 16 mm; zone of inhibition at 50 µg/disc (Klebsiella pneumoniae [25]): 26 mm; zone of inhibition at 50 µg/disc (Pseudomonas aeruginosa [26]): 24 mm; MIC (Pseudomonas aeruginosa [27]): 25 µg; zone of inhibition at 25 µg/disc (Penicillium chrysogenum [28]): 23 mm; MBC (Pseudomonas aeruginosa [29]): 100 µg; zone of inhibition at 50 µg/disc (Aspergillus niger [30]): 35 mm; zone of inhibition at 100 µg/disc (Staphylococcus aureus [31]): 15 mm; MIC (Aspergillus niger [32]): 6.25 µg; MBC (Klebsiella pneumoniae [33]): 100 µg; zone of inhibition at 12.5 µg/disc (Pseudomonas aeruginosa [34]): 18 mm; zone of inhibition at 100 µg/disc (Klebsiella pneumoniae [35]): 29 mm; zone of inhibition at 50 µg/disc (Staphylococcus aureus [36]): 13 mm
